Where no end group is shown, it is not given here.
Legend:
E. faecium (ATCC 700221) = assay: microbe, parasite or virus in culture; settings: Gram-positive, vancomycin-resistant; CLSI microdilution, CAMHB, 37 °C, 24 h; highest MIC of three independent experiments in triplicate
Experimental: (§1) Description of the characteristics and growth conditions of various bacterial strains used in the study are provided in the Supporting Information (Table S3). Antibacterial susceptibility testing was carried out using a standard microtiter dilution method recommended by the clinical and laboratory standard institute (CLSI) and measured as a minimum inhibitory concentration (MIC), the lowest peptide concentration that inhibited bacterial growth. Briefly, the overnight grown cultures in the recommended broth for each bacterial strain were diluted in cation-adjusted Mueller Hinton Broth (CAMHB) to give an inoculum of 10^6 colony-forming units (CFU)/mL. A 2-fold serially diluted test peptide solution (100 μL) was added to the microtiter plates. After adding bacterial suspension (100 μL), the plates were incubated at 37 °C for 24 h, and the MICs were determined. The same protocol was used to determine the MICs in the presence of salts and serum except using the media supplemented with various cationic salts (150 mM NaCl, 4.5 mM KCl, 6 mM NH4Cl, 1 mM MgCl2, and 2 mM CaCl2) or 25% FBS. The data was acquired from three independent assays performed in triplicate.
(§2) The bacterial strains employed in this study were obtained from the American Type Culture Collection (ATCC). Each strain was propagated as recommended by the ATCC, and each strain was stored as a frozen glycerol stock at -80°C. A bacterial colony was grown on the appropriate agar as indicated in Table S1 and was used to inoculate the appropriate broth. The culture was incubated at the appropriate conditions, as mentioned in Table S1. Following the incubation, the culture was diluted to an optical density 625 nm (OD625) of 0.1 in cation adjusted Mueller Hinton Broth (CAMHB), which is equivalent to 1 × 10^8 CFU/mL. The culture was further diluted to 1 × 10^6 CFU/mL, which was used to conduct the MIC determination assay. For the S. pneumoniae strains, CAMHB + 2.5% lysed horse blood was required for the assay. The strains with their […]
(§3) Table S3. Description of the characteristics and growth conditions of various bacterial strains

E. faecalis (ATCC 51575) = assay: microbe, parasite or virus in culture; settings: Gram-positive, vancomycin-resistant; CLSI microdilution, CAMHB, 37 °C, 24 h; highest MIC of three independent experiments in triplicate
Experimental: as §1, §2, §3

E. faecium (ATCC 27270) = assay: microbe, parasite or virus in culture
Experimental: as §1, §2, §3

[1] = system: human lung fibroblast cells (MRC-5), human embryonic kidney cells (HEK-293), human hepatic cells (HepaRG), HeKa cells; assay: 24 h cell viability assay (MTS); type: cell-based; settings: triplicate
Experimental: The in vitro cytotoxicity of 8a and 8b was evaluated using human lung fibroblast cells (MRC-5), human embryonic kidney cells (HEK-293), human hepatic cells (HepaRG), and human epidermal keratinocytes (HEKa). Cells were seeded at 10,000 per well in 0.1 mL of media in 96-well plates 24 h prior to the experiment. Lung and kidney cells were seeded in DMEM medium containing FBS (10%). Liver cells were seeded in William’s E medium with the GlutaMAX supplement. Epidermal keratinocytes were seeded in a Dermal Cell Basal medium supplemented with a keratinocyte growth kit. The peptides were added to each well in triplicates at a variable concentration of 10–250 μg/mL and incubated for 24h at 37 °C in a humidified atmosphere of 5% CO2. After the incubation period, the MTS solution (20 μL) was added to each well. Then, the cells were incubated for 2 h at 37 °C, and the cell viability was determined by measuring the absorbance at 490 nm using a SpectraMaxM2 microplate spectrophotometer. The percentage of cell survival was calculated as [(OD value of cells treated with the test mixture of compounds) – (OD value of culture medium)]/[(OD value of control cells) – (OD value of culture medium)] × 100%.

[2] = system: K. pneumoniae (ATCCBAA-1705); assay: MIC, standard microtiter dilution (CLSI); type: cell-based, Klebsiella pneumoniae; settings: broth microdilution (CLSI), CAMHB, 37 °C, 24 h
How it was run: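 In this CLSI-recommended assay, peptides were serially diluted twofold and combined with bacteria at 10^6 CFU/mL in cation-adjusted Mueller Hinton Broth.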

[3] = CD spectroscopy, helicity; type: physicochemical; design: key to Δ[θ]222 induced by TFE / Δ[θ]222 induced by Liposomes: mean residue molar ellipticity, mdeg cm2/(dmol × res); settings: for [θ]222 mean residue molar ellipticity, TFE / [θ]222 mean residue molar ellipticity, Liposomes / [θ]222 mean residue molar ellipticity, PBS: CD at 222 nm, 25 °C; for [θ]222 mean residue molar ellipticity, TFE: aqueous buffer containing 50% TFE; for [θ]222 mean residue molar ellipticity, Liposomes / Δ[θ]222 induced by Liposomes: bacterial membrane mimicking liposomes; for [θ]222 mean residue molar ellipticity, Liposomes: peptide:lipid molar ratio 1:1.05; for [θ]222 mean residue molar ellipticity, PBS: phosphate buffer saline pH 7.0; for Δ[θ]222 induced by TFE / Δ[θ]222 induced by Liposomes: difference to PBS; for Δ[θ]222 induced by TFE: 50% TFE; for % of helicity induced by TFE: increase in molar ellipticity at 222 nm in the presence of 50% TFE; for % of helicity induced by Liposomes: increase in molar ellipticity at 222 nm in the presence of liposomes;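 on % of helicity induced by Liposomes: share of the total helicity with liposomes gained over the same peptide in PBS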;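 on % of helicity induced by TFE: share of the total helicity in TFE gained over the same peptide in PBS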
How it was run: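 Ellipticity at 222 nm, converted to mean residue molar ellipticity, was measured at 25 °C (three-scan average, 190–260 nm, 1 mm path) in phosphate buffer pH 7.2, 50% TFE, or liposomes at 75 μM lipid, after blank subtraction. Induced helicity is the percent rise at 222 nm versus buffer.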

[4] = 10^6 CFU/mL, highest MIC of three independent experiments in triplicate
[5] = all tested cells (MRC-5, HEK-293, HepaRG, HeKa), MTS

Compound	MIC, E. faecium (ATCC 700221) (E. faecium (ATCC 700221)) [µg/mL]	MIC, E. faecalis (ATCC 51575) (E. faecalis (ATCC 51575)) [µg/mL]	MIC, E. faecium (ATCC 27270) (E. faecium (ATCC 27270); Gram-positive, CLSI microdilution, CAMHB, 37 °C, 24 h, highest MIC of three independent experiments in triplicate) [µg/mL]	cytotoxicity against kidney and liver cells ([1]; HEK293 and HPRGC10 (HepaRG), up to 250 μg/mL)	MIC, E. faecium (ATCC 27270) (E. faecium (ATCC 27270); ATCC 27270, 24 h) [µg/mL]	MIC, K. pneumoniae (ATCCBAA-1705) [2, 4] [µg/mL]	MIC, K. pneumoniae (ATCCBAA-1705) ([2]; value in parentheses (μM)) [µM]	[θ]222 mean residue molar ellipticity, TFE [3]	[θ]222 mean residue molar ellipticity, Liposomes [3]	[θ]222 mean residue molar ellipticity, PBS [3]	Δ[θ]222 induced by TFE [3]	Δ[θ]222 induced by Liposomes [3]	% of helicity induced by TFE [3] [%]	% of helicity induced by Liposomes [3] [%]	cell viability at 250 μg/mL, except for skin cells ([1]; MRC-5, HEK-293, HepaRG, MTS)	cell viability at 50 μg/mL [1, 5]	cell viability at 250 μg/mL [1, 5]
CCCCCCCCCC(=O)N[C@@H](Cc1c[nH]c2ccccc12)C(=O)N[C@H](CC(N)=O)C(=O)N[C@@H](CC(=O)O)C(=O)N[C@@H]1C(=O)NCC(=O)N[C@@H](CCCN)C(=O)N[C@@H](CC(=O)O)C(=O)N[C@H](C)C(=O)N[C@@H](CC(=O)O)C(=O)NCC(=O)N[C@H](CO)C(=O)N[C@@H]([C@H](C)CC(=O)O)C(=O)N[C@@H](CC(=O)c2ccccc2N)C(=O)O[C@@H]1C [daptomycin, reference compound]	6.2	12.5	1.5	negligible cytotoxicity	–	–	–	–	–	–	–	–	–	–	–	–	–
KWIKKWIKWWKK-NH2 [7b]	6.2	6.2	–	–	6.2	25	14.23	-10800 mdeg cm2/(dmol × res)	-12345 mdeg cm2/(dmol × res)	-3016 mdeg cm2/(dmol × res)	-7784	-9328	72.06	75.56	–	–	–
KWLKKWLKWWKK-NH2 [8b]	3.1	6.2	–	–	3.1	6.2	3.53	-15887 mdeg cm2/(dmol × res)	-19313 mdeg cm2/(dmol × res)	-6387 mdeg cm2/(dmol × res)	-9499	-12926	59.79	66.92	above 60%	above 75%	–
RWIRRWIRWWRR-NH2 [7a]	6.2	12.5	–	–	6.2	12.5	6.49	-8205 mdeg cm2/(dmol × res)	-11307 mdeg cm2/(dmol × res)	-2471 mdeg cm2/(dmol × res)	-5734	-8836	69.88	78.14	–	–	–
RWLRRWLRWWRR-NH2 [8a]	3.1	6.2	–	–	6.2	12.5	6.49	-10811 mdeg cm2/(dmol × res)	-15616 mdeg cm2/(dmol × res)	-4794 mdeg cm2/(dmol × res)	-6017	-10822	55.65	69.30	–	below 60%	below 30%

Source: publication PMC9841524, “Structure-Based Rational Design of Small α-Helical Peptides with Broad-Spectrum Activity against Multidrug-Resistant Pathogens” (Journal of Medicinal Chemistry, 2022)
